This passage reports EC50 results from ChEMBL document CHEMBL5725290, “IRE-1α inhibitors” (2017).

pEC50: −log10 of the molar value.

In the test the target is Serine/threonine-protein kinase/endoribonuclease IRE1 (Homo sapiens, UniProt O75460). Briefly: IRE-1alpha Assay: A fusion protein comprising glutathione S transferase (GST) and human IRE-1α (GST-IRE-1α) obtained from a 500 ml baculovirus-infected insect cell culture can be used to measure IRE-1α activity in vitro. Five μl of a reaction mixture comprising 1× reaction buffer (5× reaction buffer is 100 mM Hepes pH 7.5, 250 mM KOAc, 2.5 mM MgCl2), 3 mM DTT, and 0.4% polyethylene glycol water is added to each well of 384 well plates. Twenty-five nanoliters of a 1 mM test compound solution are added to test wells. Three μl of a 128 ng/ml IRE-1α preparation are added to each test well and to positive control wells (final concentration 5.82 ng/well). Negative control wells contain only reaction mixture and test compound. After spinning the plates at 1200 rpm for 30 seconds, 3 μl of an IRE-1α human mini-XBP-1 mRNA stem-loop substrate 5'-[…]-3' (SEQ ID NO:1), labeled with the fluorescent dye Cy5 at the 5' end and Black Hole Quencher 2 (BH2) at the 3' end, are added to each well of a control plate. The plates are again spun at 1200 rpm for 30 seconds. Final concentrations for the assay are: 63 nM IRE-1α substrate, 5.82 ng IRE-1α protein, and 2.5 μM test compound. The plates are covered with lids and incubated for one hour at 30° C. The plates are then transferred to an ACQUEST™ microplate reader. Data is analyzed using data analysis software, and the percent activity of IRE-1α is calculated.
Chain of Serine/threonine-protein kinase/endoribonuclease IRE1 (O75460 whole entry, the tested form may be a part): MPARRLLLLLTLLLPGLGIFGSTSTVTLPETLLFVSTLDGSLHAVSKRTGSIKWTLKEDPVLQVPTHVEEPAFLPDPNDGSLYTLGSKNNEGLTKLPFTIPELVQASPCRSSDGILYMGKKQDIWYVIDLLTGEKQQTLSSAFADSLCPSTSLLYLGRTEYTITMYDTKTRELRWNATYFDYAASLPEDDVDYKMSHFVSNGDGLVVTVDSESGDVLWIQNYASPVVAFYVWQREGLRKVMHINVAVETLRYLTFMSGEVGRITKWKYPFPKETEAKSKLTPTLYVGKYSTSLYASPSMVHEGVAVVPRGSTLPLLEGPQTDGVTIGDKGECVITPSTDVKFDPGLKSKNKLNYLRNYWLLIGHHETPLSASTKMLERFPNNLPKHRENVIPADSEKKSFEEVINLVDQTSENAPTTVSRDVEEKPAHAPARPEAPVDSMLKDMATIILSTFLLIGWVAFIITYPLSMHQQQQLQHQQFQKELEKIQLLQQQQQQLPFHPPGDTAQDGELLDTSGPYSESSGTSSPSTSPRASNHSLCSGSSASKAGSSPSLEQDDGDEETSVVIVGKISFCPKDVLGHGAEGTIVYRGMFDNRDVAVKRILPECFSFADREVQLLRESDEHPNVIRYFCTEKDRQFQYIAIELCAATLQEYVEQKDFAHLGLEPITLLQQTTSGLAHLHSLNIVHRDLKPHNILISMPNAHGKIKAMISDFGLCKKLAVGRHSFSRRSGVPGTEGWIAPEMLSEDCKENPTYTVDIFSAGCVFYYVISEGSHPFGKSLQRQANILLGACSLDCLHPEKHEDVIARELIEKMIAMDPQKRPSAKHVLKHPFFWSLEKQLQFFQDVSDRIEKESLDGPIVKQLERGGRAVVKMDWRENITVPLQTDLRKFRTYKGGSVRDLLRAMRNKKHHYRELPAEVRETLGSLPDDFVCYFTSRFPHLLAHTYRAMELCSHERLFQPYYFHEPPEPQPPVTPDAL
Regarding `Cc1nc(N2CCc3c(ccc(O)c3C=O)C2)sc1C(=O)N1CCOCC1`, the negative logarithm of the EC50 (pEC50) was less than 5.00.
The figure for `O=Cc1c(O)ccc2nc(-c3ccc(C(=O)N4CCOCC4)cc3)[nH]c12` is less than 5.00; for `Cc1cc(=O)oc2c(C=O)c(O)c(F)cc12` it is greater than 5.00; for `CCN(CC)CCc1c(C)c2ccc(O)c(C=O)c2oc1=O` it is less than 5.00.
For `O=Cc1c(O)ccc2cc(-c3ccc(Br)cc3)c(=O)oc12`, the pEC50 was less than 5.00.
For the compound `Cc1c(CCC(=O)N2CCOCC2)c(=O)oc2c(C=O)c(O)ccc12`, the pEC50 is greater than 5.00.
The figure for `COC(=O)c1ccc(-c2nc3ccc(O)c(C=O)c3[nH]2)cc1` is less than 5.00; for `CC1CCN(C(=O)c2ccc(-c3nc4ccc(O)c(C=O)c4s3)cc2)CC1` it is less than 5.00.
With `COc1cc2c(C)c(-c3ccc(C(=O)N4CCOCC4)cc3)c(=O)oc2c(C=O)c1O`, the pEC50 was greater than 5.00.
For the compound `CC(=O)NC1CCN(c2ccc3c(C=O)c(O)ccc3n2)C1` (stereo not given), the pEC50 was greater than 5.00.
In the case of `Cc1c(-c2cccc(C(=O)N3CCOCC3)c2)c(=O)oc2c(C=O)c(O)ccc12`, the negative logarithm of the EC50 (pEC50) is greater than 5.00.
The figure for `Cc1c(-c2ccc(C(=O)N3CCCC3)cc2)c(=O)oc2c(C=O)c(O)ccc12` is greater than 5.00; for `CN1CCN(C(=O)c2ccc(-c3nc4ccc(O)c(C=O)c4s3)s2)CC1` it is less than 5.00.
For the compound `Cc1c(-c2ccc(C(=O)N3CCN(C)CC3)cc2)c(=O)oc2c(C=O)c(O)ccc12`, the pEC50 is greater than 5.00.
In the case of `CC(C)N1CCN(c2nc3ccc(O)c(C=O)c3s2)CC1`, the pEC50 was less than 5.00.
The figure for `Cc1c(-c2ccc(C(=O)N3CCC(C)CC3)cc2)c(=O)oc2c(C=O)c(O)ccc12` is greater than 5.00; for `CC1CCN(C(=O)c2ccc(-c3ccc4c(C=O)c(O)ccc4n3)cc2)CC1` it is less than 5.00.
With `O=Cc1c(O)ccc2nc(-c3ccc(C(=O)NCCN4CCOCC4)cc3)[nH]c12`, the pEC50 is less than 5.00.
The figure for `COc1cc2c(C)c(Br)c(=O)oc2c(C=O)c1O` is greater than 5.00.
For `Cc1c(Br)c(=O)oc2c(C=O)c(O)ccc12`, the pEC50 is greater than 5.00.
The figure for `CN1CCN(C(=O)c2ccc(-c3nc4ccc(O)c(C=O)c4[nH]3)cc2)CC1` is less than 5.00; for `Cc1c(-c2cccc(C(=O)N3CCCC3)c2)c(=O)oc2c(C=O)c(O)ccc12` it is less than 5.00.
As for `O=Cc1c(O)ccc2nc(-c3cccc(C(=O)N4CCOCC4)c3)ccc12`, the pEC50 is greater than 5.00.
`Cc1c(Br)c(=O)oc2c(C=O)c(O)c(F)cc12`: the pEC50 was greater than 5.00.
In the case of `Cc1c(Cc2ccccc2)c(=O)oc2c(C=O)c(O)c(O)cc12`, the negative-log EC50 (pEC50) was less than 5.00.
In the case of `CN1CCN(C2CCN(c3nc4ccc(O)c(C=O)c4s3)C2)CC1` (stereo not given), the pEC50 is less than 5.00.
The figure for `O=Cc1c(O)ccc2nc(-c3ccc(C(=O)N4CCCC4)cc3)ccc12` is greater than 5.00; for `O=Cc1c(O)ccc2nc(N3CCC(NC(=O)CN4CCOCC4)C3)ccc12` (stereo not given) it is greater than 5.00.
The figure for `O=Cc1c(O)ccc2nc(-c3ccc(C(=O)O)cc3)[nH]c12` is less than 5.00.
The figure for `Cc1c(-c2ccc(N3CCN(C)CC3)cc2)c(=O)oc2c(C=O)c(O)c(F)cc12` is greater than 5.00.
